Consider 7 compounds from patent US7091025B2, “Malathion carboxylesterase” (priority 1995, dated 2006).

Data set [1] deals with T1, Lucilia cuprina LcαE7 (esterase E3) gene product, malathion resistant allele (strain RM-8), Trp to Leu at position 251 (Lucilia cuprina, UniProt Q25252, W251L). Nature of the data set: malathion hydrolysis (MCE activity), expressed malathion resistant LcαE7 product. The format is biochemical. The conditions noted are these: malathion 2.5-100 μM, 25° C., pH 7.0.
Data set [2] has as its system malathion carboxylesterase (MCE) purified from malathion resistant strains of L. cuprina. The conditions noted are these: cited from earlier work.
Data set [3] deals with Lucilia cuprina LcαE7 (esterase E3) gene product, malathion susceptible allele (strain LS2; clone Lc743), Trp at position 251 (Lucilia cuprina, UniProt Q25252). Nature of the data set: malathion hydrolysis (MCE activity), expressed malathion susceptible LcαE7 product. The conditions noted are these: malathion 2.5-100 μM, 25° C., pH 7.0. The format is biochemical.
Chain of Lucilia cuprina LcαE7 (esterase E3) gene product, malathion susceptible allele (strain LS2; clone Lc743), Trp at position 251 (Q25252 entry or part of it): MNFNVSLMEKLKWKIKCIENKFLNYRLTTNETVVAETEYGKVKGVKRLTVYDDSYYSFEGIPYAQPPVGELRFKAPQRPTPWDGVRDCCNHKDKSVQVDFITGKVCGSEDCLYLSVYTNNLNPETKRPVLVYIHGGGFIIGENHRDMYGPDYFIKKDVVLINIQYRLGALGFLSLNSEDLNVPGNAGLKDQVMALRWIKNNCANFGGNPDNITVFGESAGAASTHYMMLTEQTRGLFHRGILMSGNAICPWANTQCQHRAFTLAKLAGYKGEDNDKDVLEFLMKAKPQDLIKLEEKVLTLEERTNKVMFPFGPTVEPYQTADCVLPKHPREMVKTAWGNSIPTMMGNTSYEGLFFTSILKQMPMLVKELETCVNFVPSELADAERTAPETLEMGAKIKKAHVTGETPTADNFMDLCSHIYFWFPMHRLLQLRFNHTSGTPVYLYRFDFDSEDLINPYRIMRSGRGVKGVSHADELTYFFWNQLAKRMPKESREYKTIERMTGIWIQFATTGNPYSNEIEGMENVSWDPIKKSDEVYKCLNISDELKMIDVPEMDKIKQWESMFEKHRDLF
Data set [4] concerns malathion carboxylesterase (MCE) purified from malathion resistant strains of L. cuprina. The conditions noted are these: purified MCE (Whyard and Walker 1994); cited from earlier work.
For data set [5], the target named is Lucilia cuprina LcαE7 (esterase E3) gene product, malathion resistant allele, Trp to Leu at position 251 (Lucilia cuprina, UniProt Q25252, W251L). Nature of the data set: chlorfenvinphos hydrolysis, expressed malathion resistant LcαE7 product. In kind it is biochemical. The following applies: 75 μM CVP. How it is done: The malathion resistant Lcα7 full-length cDNA was cloned into the baculovirus transfer vector, Bacpac 6 (Clonetech) 3′ of the polyhedrin promoter. Transfections were conducted using a lipofection method with DOTAP (Boehringer Mannheim) as per King and Possee (The Baculovirus Expression System: A Laboratory Guide, Chapman & Hall, London, 1992). One μg of DNA of each of the resulting constructs together with 200 ng of Bacpac 6 baculovirus DNA (Clonetech), linearised by digestion with the restriction enzyme BSU 36I (Promega), was incubated in a solution of HBS (hepes buffered saline) containing 15% DOTAP (Boehringer Mannheim) in a polystyrene container at room temperature for 10 minutes. The solution was then used to transfect a single well of a six well tissue culture plate pre-seeded 2 hrs previously with 10^4 Sf9 (Spodoptera frugiperda) cells in 1.5 mls Grace's medium (King and Possee, The Baculovirus Expression System: A Laboratory Guide, Chapman & Hall, London, 1992). After 12 hours, the medium was replaced with 3 mls of Grace's medium containing 10% fetal calf serum. Construct plus DOTAP, linearised virus plus DOTAP and DOTAP only controls were conducted in parallel with transfections. The transfections were harvested 4–5 days after infection and the cells isolated by centrifugation at 500 g for 5 minutes. […]

Data set [6] relates to Lucilia cuprina LcαE7 (esterase E3) gene product, OP-susceptible allele (LS2). The conditions noted are these: described in PCT/AU 95/00016; cited from earlier work.
Data set [7] concerns MCE activity associated with malathion resistance in M. domestica, C. putoria and L. cuprina. The following applies: literature; cited from earlier work.
Data set [8] concerns malathion resistant strains of M. domestica, C. putoria and L. cuprina. The conditions noted are these: literature, cited from earlier work.
Data set [9] has as its target T1, Lucilia cuprina LcαE7 (esterase E3) gene product, malathion resistant allele (strain RM-8), Trp to Leu at position 251. Nature of the data set: sensitivity of MCE activity to TPP, expressed malathion resistant LcαE7 product. The format is biochemical. The conditions noted are these: TPP 8×10^−8M, preincubation 15, 30 or 45 minutes.
Data set [10] relates to MCE encoded by the malathion resistant allele of LcαE7. Nature of the data set: Sensitivity of MCE activity to TPP (titration/preincubation of cell extract). In kind it is biochemical, L. cuprina.
In data set [11] the test system is CC(=O)Oc1cccc2ccccc12. Nature of the data set: α-naphthyl acetate hydrolysis, expressed malathion resistant LcαE7 product. In kind it is biochemical, Lucilia cuprina. The following applies: other: α-NA 6-200 μM, 25° C., pH 8.0. How it is done: (§1) The malathion resistant Lcα7 full-length cDNA was cloned into the baculovirus transfer vector, Bacpac 6 (Clonetech) 3′ of the polyhedrin promoter. Transfections were conducted using a lipofection method with DOTAP (Boehringer Mannheim) as per King and Possee (The Baculovirus Expression System: A Laboratory Guide, Chapman & Hall, London, 1992). One μg of DNA of each of the resulting constructs together with 200 ng of Bacpac 6 baculovirus DNA (Clonetech), linearised by digestion with the restriction enzyme BSU 36I (Promega), was incubated in a solution of HBS (hepes buffered saline) containing 15% DOTAP (Boehringer Mannheim) in a polystyrene container at room temperature for 10 minutes. […]
(§2) The initial rates of reactions between cell extracts containing the expressed products of the malathion resistant and susceptible LcαE7 alleles and α-naphthyl acetate (α-NA) were determined at 25° C. using a recording spectrophotometer and the method of Mastrapaolo and Yourno (Analytical Biochemistry 115: 188, 1981). 6–200 μM α-NA dissolved in 10 μl of 2-methoxyethanol was added to 0.1 M Tris-HCl pH 8.0 (980 μl) in a quartz cuvette. α-Naphthyl acetate is slowly hydrolysed in water so a background rate was recorded before starting the enzymic reaction by the addition of 10 μl of diluted cell extract. […]
(§3) Km and Vmax were calculated for both enzymes. […]

For data set [12], the system named is CCCC(=O)Oc1cccc2ccccc12. Nature of the data set: α-naphthyl butyrate hydrolysis, expressed malathion resistant LcαE7 product. The format is biochemical, Lucilia cuprina. The following applies: other: α-NB 6-200 μM, 25° C., pH 8.0. How it is done:
as §1, §2, §3

Data set [13] has as its system malathion carboxylesterase (MCE) purified from malathion resistant strains of L. cuprina. The conditions noted are these: purified MCE (Whyard and Walker 1994); cited from earlier work. This is another data set of the same source.
The test system of data set [14] is CCCC(=O)Oc1cccc2ccccc12. Nature of the data set: α-naphthyl butyrate hydrolysis, expressed malathion susceptible LcαE7 product. The conditions noted are these: other: α-NB 6-200 μM, 25° C., pH 8.0. The format is biochemical, Lucilia cuprina. Here is the method: (§4) The in vitro expression of the OP susceptible allele of LcαE7 (clone Lc743) is described in patent application PCT/AU 95/00016 (“Enzyme based bioremediation”).
(§5) The initial rates of reactions between cell extracts containing the expressed products of the malathion resistant and susceptible LcαE7 alleles and α-naphthyl acetate (α-NA) were determined at 25° C. using a recording spectrophotometer and the method of Mastrapaolo and Yourno (Analytical Biochemistry 115: 188, 1981). 6–200 μM α-NA dissolved in 10 μl of 2-methoxyethanol was added to 0.1 M Tris-HCl pH 8.0 (980 μl) in a quartz cuvette. α-Naphthyl acetate is slowly hydrolysed in water so a background rate was recorded before starting the enzymic reaction by the addition of 10 μl of diluted cell extract. Control reactions were performed with extracts of both uninfected cells and Bacpac 6 infected cells.
As described above for α-NA hydrolysis except that 6–200 μM α-naphthyl butyrate (α-NB) was used instead of α-NA.
(§6) Km and Vmax were calculated for both enzymes. Kcat was then calculated from the Vmax and the molarity of the LcαE7 products in their respective cell extracts (determined above).

Data set [15] relates to CC(=O)Oc1cccc2ccccc12. Nature of the data set: α-naphthyl acetate hydrolysis, expressed malathion susceptible LcαE7 product. In kind it is biochemical, Lucilia cuprina. The following applies: other: α-NA 6-200 μM, 25° C., pH 8.0. How it is done: as §4, §5, §6
Setting [16] is: purified MCE (Whyard et al. 1994).

Read-outs that look alike come from different tables or passages of the source.

With `CCOC(=O)CC(SP(=S)(OC)OC)C(=O)OCC` (stereo not drawn) [malathion, S-1,2-bis(ethoxycarbonyl)ethyl O,O-dimethyl phosphorodithioate], in data set [1], the Kcat was 0.717 ± 0.017 s⁻¹ and the Km was 21 ± 1 µM. Moreover, the Kcat in data set [2] (purified MCE (Whyard and Walker 1994)) was 46±2 per min. In [2] (setting [16]), the Michaelis constant (Km) was 11 ± 0.4 µM, the Vmax was 775±28 nmol malathion/min/mg and the “kcat (turnover number)” value was 0.767 s⁻¹. Further, in [3], the Kcat is 1.17 ± 0.183 s⁻¹ and the Michaelis-Menten constant (Km) was 200 ± 30 µM.

For the compound `CC(=O)Oc1cccc2ccccc12` [α-naphthyl acetate], in [4], the Kcat is 2063 per min and the Michaelis constant (Km) is 167 ± 14 µM.

Take `CCOP(=O)(OCC)OC(=CCl)c1ccc(Cl)cc1Cl` [CVP, chlorfenvinphos]: the “turnover, fold less than that of the diazinon resistant (RM2-6) gene product” value in data set [5] was “approximately 50 fold”. In data set [5] (30° C., pH 7.0), the “turnover (hydrolytic activity)” value is “about 1.2 hour^−1”. Moreover, the “CVP / diethyl OP hydrolytic activity” value in data set [6] is “undetectable”.

With `O=P(Oc1ccccc1)(Oc1ccccc1)Oc1ccccc1` [TPP, triphenylphosphate], in data set [7], the “sensitivity of MCE activity to inhibition by TPP” value is on record as “High sensitivity to inhibition by TPP”. In addition, the values for the synergism of malathion entry in data set [8] (listed as triphenylphosphate) and in data set [8] were “best synergists” and “potent synergism of malathion by TPP”, respectively. The “residual MCE activity at different preincubation times / completeness of inhibition by TPP” value in data set [9] was “no significant difference between the residual MCE activity at each of the preincubation times”. Moreover, the “turnover of TPP by MCE” value in data set [9] is “TPP was not being turned over by MCE”; in [10] (TPP 8×10^−8M preincubated 15, 30 or 45 minutes with cell extract), “not being turned over”. In data set [10] (expressed product of malathion resistant LcαE7 allele, substrate malathion), the “concentration giving stoichiometric inhibition of MCE activity” value is given as “below 10^−7 M”.

As to “Lucilia cuprina LcαE7 (esterase E3) gene product, malathion resistant allele (strain RM-8), Trp to Leu at position 251 (Lucilia cuprina; W251L)”, the Michaelis constant (Km) amounted to 150 ± 50 µM in data set [11] and 29 ± 4 µM in data set [12]. Further, the kcat in [11] is 37.8 ± 0.5 s⁻¹; in data set [12], 150 ± 6.67 s⁻¹.

For `CCCC(=O)Oc1cccc2ccccc12` [α-naphthyl butyrate], in data set [13], the Kcat is on record as 3700 per min and the Km is 39 ± 4 µM.

On to “Lucilia cuprina LcαE7 (esterase E3) gene product, malathion susceptible allele (strain LS2; clone Lc743), Trp at position 251 (Lucilia cuprina)”, for which the Michaelis-Menten constant (Km) in data set [14] worked out at 20 ± 5 µM; in [15] it was 70 ± 5 µM. For the same compound, the kcat in data set [14] stood at 300 ± 33.3 s⁻¹; in [15], 183 ± 5 s⁻¹.
